In patent US8827946B2 (Shin Nippon Biomedical Laboratories, Ltd., priority 2009, dated 2014):
Like-named read-outs stand apart in the source and are kept apart here.

Assay: Phase 1 clinical study, pharmacokinetics of granisetron after intravenous and intranasal administration
Format: in vivo, human
Protocol: This was an open-label safety and PK study conducted at a single site in which healthy volunteers, at weekly intervals, were given the reference intravenous dose, followed by three single escalating nasal doses of TRG at weekly intervals.
Subjects received one intravenous dose of Kytril® (10 μg/kg) followed by three escalating single doses of TRG. There was a 7 day washout period between each dose.
The following PK parameters were tested: AUC0-last (ng·h/mL), AUCinf (ng·h/mL), Tmax (hours), Cmax (ng/mL), T1/2 (hours), clearance, and volume of distribution. No efficacy variables were assessed in this safety and PK study.
The PK parameters T1/2, Tmax, Cmax, AUC0-last, and AUCinf were calculated by using noncompartmental analysis. Values for Tmax and Cmax were reported as the observed values. Terminal elimination rate constants (λz) were determined by log-linear regression of the terminal portion of the concentration-time curves (FIG. 8). Values for T1/2 were calculated as (ln 2)/λz, and AUC0-last was determined by the linear trapezoidal method. AUCinf was calculated as the sum of AUC0-last and Clast/λz where Clast is the last measurable concentration. The absolute bioavailability (F) was calculated for each subject by the dose-corrected AUCinf intranasal divided by AUCinf intravenous. Apparent clearance and volume of distribution were also calculated. To determine the relationship between pharmacokinetic parameters (Cmax, AUClast, and AUC0-∞) and dosage, a multiple regression analysis was performed with log-transformed values. For other pharmacokinetic parameters, analysis of variance (ANOVA) using the mixed effect model was performed to compare between groups.

[1] = human, plasma, 10 ug/kg, intravenous 10 μg/kg (Kytril), healthy male volunteers, mean, N=8
[2] = human, plasma, inhaled or intranasal, intranasal 0.5 mg (TRG capsule, single nostril), healthy male volunteers, mean
[3] = human, plasma, inhaled or intranasal, intranasal 1.0 mg (TRG capsule, single nostril), healthy male volunteers, mean
[4] = human, plasma, inhaled or intranasal, intranasal 2.0 mg (TRG capsule, single nostril), healthy male volunteers, mean
[5] = intranasal 0.5 mg (TRG capsule, single nostril), healthy male volunteers, mean
[6] = intranasal 1.0 mg (TRG capsule, single nostril), healthy male volunteers, mean
[7] = intranasal 2.0 mg (TRG capsule, single nostril), healthy male volunteers, mean

- AUC(0-inf) [1]: 103 ng·h/mL
- AUC(0-t) [1]: 92.4 ng·h/mL
- Cmax [1]: 16.6 ng/mL
- clearance [1]: 158 mL/min
- half-life (human, plasma, 10 ug/kg, intravenous 10 μg/kg (Kytril), healthy male volunteers, mean, N=8, read-out: T1/2 (converted)): 8.52 h
- Vd (human, plasma, 10 ug/kg, intravenous 10 μg/kg (Kytril), healthy male volunteers, mean, N=8, read-out: Vss): 108 L
- AUC(0-inf) [2]: 52.7 ng·h/mL
- AUC(0-t) [2]: 46.9 ng·h/mL
- Cmax [2]: 4.95 ng/mL
- half-life (human, plasma, inhaled or intranasal, intranasal 0.5 mg (TRG capsule, single nostril), healthy male volunteers, mean, read-out: T1/2 (converted)): 8.9 h
- AUC(0-inf) [3]: 119 ng·h/mL
- AUC(0-t) [3]: 105 ng·h/mL
- Cmax [3]: 13.3 ng/mL
- half-life (human, plasma, inhaled or intranasal, intranasal 1.0 mg (TRG capsule, single nostril), healthy male volunteers, mean, read-out: T1/2 (converted)): 9.52 h
- AUC(0-inf) [4]: 236 ng·h/mL
- AUC(0-t) [4]: 210 ng·h/mL
- Cmax [4]: 26.6 ng/mL
- half-life (human, plasma, inhaled or intranasal, intranasal 2.0 mg (TRG capsule, single nostril), healthy male volunteers, mean, read-out: T1/2 (converted)): 9.29 h
- CL/F [5]: 10.6 L/h
- Vz [5]: 131.4 L
- CL/F [6]: 9.1 L/h
- Vz [6]: 122.6 L
- CL/F [7]: 9.2 L/h
- Vz [7]: 122.0 L
- Tmax (male, human, plasma, inhaled or intranasal, 0.5 mg, intranasal 0.5 mg (TRG capsule, single nostril), healthy male volunteers, mean, read-out: Tmax): 1.34 h
- Tmax (male, human, plasma, inhaled or intranasal, 1 mg, intranasal 1.0 mg (TRG capsule, single nostril), healthy male volunteers, mean, read-out: Tmax): 0.34 h
- Tmax (male, human, plasma, inhaled or intranasal, 2 mg, intranasal 2.0 mg (TRG capsule, single nostril), healthy male volunteers, mean, read-out: Tmax): 0.63 h
- Tmax (male, human, plasma, inhaled or intranasal, 2 mg, intranasal, 0.5, 1.0 and 2.0 mg doses together, read-out: overall mean Tmax): 0.75 h
- half-life (male, human, plasma, inhaled or intranasal, after intranasal administration, all dose levels, read-out: overall mean half-life (converted)): 9.23 h
- Tmax (male, human, plasma, iv, 10 ug/kg, intravenous 10 μg/kg (Kytril), healthy male volunteers, mean, N=8, read-out: Tmax): 0.18 h
- Tmax (male, human, plasma, iv, 10 μg/kg, intravenous rapid infusion 10 μg/kg, all subjects except one, read-out: Tmax): 0.0833 to 0.167 h
Compound: CN1C2CCCC1CC(NC(=O)c1nn(C)c3ccccc13)C2 (stereo not drawn) [Granisetron, endo-N-(9-methyl-9-azabicyclo[3.3.1]non-3-yl)-1-methyl-1H-indazole-3-carboxamide]
